Experimental data as given in PubChem BioAssay AID330 (DTP/NCI, 2004).
Several values for one entry are separate records, joined by “and”; a condition that tells them apart may be missing. Equal entries are not always repeated. Inconclusive results and toxic doses are left out. The calls were made as follows: active = survival T/C of 150% or more; inactive = T/C below 125% in these data.

System: P388 leukemia ip, CD2F1 mice, survival T/C
Test: NCI In Vivo Anticancer Drug Screen. Data for tumor model P388 Leukemia (intraperitoneal) in CD2F1 (CDF1) mice
Conditions: endpoint: median survival time, higher = longer survival
Method in brief: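 Mice carrying the transplanted tumor received test compound or vehicle. Survival was recorded in each group, and the value is the treated-group measurement divided by that of the vehicle-treated control group.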

Measured: T/C

COc1cccc2c1C(=O)c1c(O)c3c(c(O)c1C2=O)C[C@@](O)(C(C)=O)C[C@@H]3OC1CC(N)C(O)C(C)O1 (stereo partly specified)
inactive: dose: 0.06 mg/kg/injection, schedule: Q01DX009 (ip), vehicle: water 104 % of control and 118 % of control | dose: 0.06 mg/kg/injection, schedule: Q03HX008 (ip), vehicle: saline 118 % of control | dose: 0.08 mg/kg/injection, schedule: Q01DX005 (ip), vehicle: saline 118 % of control | dose: 0.12 mg/kg/injection, schedule: Q01DX005 (ip), vehicle: water 114 % of control | dose: 0.13 mg/kg/injection, schedule: Q03HX008 (ip), vehicle: saline 120 % of control | dose: 0.25 mg/kg/injection, schedule: Q01DX005 (ip), vehicle: water 112 % of control | dose: 0.25 mg/kg/injection, schedule: Q04DX003 (ip), vehicle: saline 100 % of control | dose: 0.32 mg/kg/injection, schedule: Q03HX040 (ip), vehicle: saline 116 % of control | dose: 0.5 mg/kg/injection, schedule: Q01DX001 (ip), vehicle: saline 108 % of control | dose: 0.5 mg/kg/injection, schedule: Q01DX005 (ip), vehicle: water 107 % of control | dose: 0.5 mg/kg/injection, schedule: Q01DX005 (oral), vehicle: water 105 % of control | dose: 0.5 mg/kg/injection, schedule: Q04DX003 (ip), vehicle: saline 109 % of control | dose: 0.63 mg/kg/injection, schedule: Q03HX040 (ip), vehicle: saline 112 % of control | dose: 0.75 mg/kg/injection, schedule: Q04DX003 (ip), vehicle: saline 110 % of control and 119 % of control | dose: 1.0 mg/kg/injection, schedule: Q01DX001 (ip), vehicle: saline 115 % of control | dose: 1.0 mg/kg/injection, schedule: Q01DX005 (oral), vehicle: water 102 % of control | dose: 1.0 mg/kg/injection, schedule: Q04DX003 (iv), vehicle: saline 98 % of control | dose: 1.5 mg/kg/injection, schedule: Q04DX003 (ip), vehicle: saline 116 % of control and 117 % of control | dose: 1.67 mg/kg/injection, schedule: Q01DX009 (ip), vehicle: water 123 % of control
active: dose: 0.16 mg/kg/injection, schedule: Q01DX005 (ip), vehicle: saline 150 % of control and 167 % of control | dose: 0.16 mg/kg/injection, schedule: Q01DX009 (ip), vehicle: saline 168 % of control | dose: 0.21 mg/kg/injection, schedule: Q01DX009 (ip), vehicle: water 150 % of control | dose: 0.32 mg/kg/injection, schedule: Q01DX001 (ip), vehicle: saline 150 % of control | dose: 0.32 mg/kg/injection, schedule: Q01DX005 (ip), vehicle: saline 175 % of control | dose: 0.32 mg/kg/injection, schedule: Q01DX009 (ip), vehicle: saline 166 % of control | dose: 0.39 mg/kg/injection, schedule: Q01DX009 (ip), vehicle: saline 172 % of control | dose: 0.42 mg/kg/injection, schedule: Q01DX009 (ip), vehicle: water 150 % of control and 155 % of control | dose: 0.5 mg/kg/injection, schedule: Q01DX010 (ip), vehicle: saline 163 % of control | dose: 0.63 mg/kg/injection, schedule: Q01DX001 (ip), vehicle: saline 166 % of control | dose: 0.63 mg/kg/injection, schedule: Q01DX009 (ip), vehicle: saline 171 % of control | dose: 0.64 mg/kg/injection, schedule: Q01DX001 (ip), vehicle: saline 160 % of control | dose: 0.83 mg/kg/injection, schedule: Q01DX009 (ip), vehicle: water 164 % of control and 169 % of control | dose: 1.0 mg/kg/injection, schedule: Q01DX010 (ip), vehicle: saline 172 % of control | dose: 1.0 mg/kg/injection, schedule: Q04DX002 (ip), vehicle: water 158 % of control | dose: 1.08 mg/kg/injection, schedule: Q01DX009 (ip), vehicle: saline 172 % of control | dose: 1.08 mg/kg/injection, schedule: Q04DX003 (ip), vehicle: saline 150 % of control and 152 % of control | dose: 1.08 mg/kg/injection, schedule: Q04DX003 (ip), vehicle: water 157 % of control | dose: 1.25 mg/kg/injection, schedule: Q01DX001 (ip), vehicle: saline 154 % of control | dose: 1.25 mg/kg/injection, schedule: Q01DX005 (ip), vehicle: saline 162 % of control | dose: 1.25 mg/kg/injection, schedule: Q03HX008 (ip), vehicle: saline 167 % of control | dose: 1.3 mg/kg/injection, schedule: Q01DX001 (ip), vehicle: water 154 % of control
